Data taken from PMC11977255 (Communications Biology, 2025).

Tests used:
McyI [1] = target: T1, McyI (Anabaena sp. 90, UniProt Q7WRR2); assay: isothermal titration calorimetry; type: binding
McyI [2] = target: T1, McyI; assay: reductase assay, absorbance at […] nm; type: biochemical; details: 1 mM OAA, 0.2 mM NADPH, 1.6 μM enzyme

T1 sequence (Q7WRR2 1-337 limits assumed): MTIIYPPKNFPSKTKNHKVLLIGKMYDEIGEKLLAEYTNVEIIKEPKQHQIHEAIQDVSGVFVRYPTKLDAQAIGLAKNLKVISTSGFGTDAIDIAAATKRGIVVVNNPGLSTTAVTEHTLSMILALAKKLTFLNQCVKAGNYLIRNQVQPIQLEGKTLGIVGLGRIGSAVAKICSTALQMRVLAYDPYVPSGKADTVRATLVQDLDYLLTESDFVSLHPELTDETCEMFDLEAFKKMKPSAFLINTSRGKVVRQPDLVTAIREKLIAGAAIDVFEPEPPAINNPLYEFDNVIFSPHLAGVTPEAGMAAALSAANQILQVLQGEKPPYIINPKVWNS

Row | SMILES | Kd (McyI [1]) [µM] | reductase assay, absorbance at 340 nm (McyI [2])
1 | NC(=O)C1=CN([C@@H]2O[C@H](COP(=O)(O)OP(=O)(O)OC[C@H]3O[C@@H](n4cnc5c(N)ncnc54)[C@H](OP(=O)(O)O)[C@@H]3O)[C@@H](O)[C@H]2O)C=CC1 [NADPH] | 16 | 
2 | O=C(O)CC(=O)C(=O)O [OAA] |  | The enzyme, OAA, and the nicotinamide cofactor
